Assay results from patent publication US20240174649A1, “CULLIN-RING E3 UBIQUITIN LIGASE 4 INHIBITOR COMPOUNDS AND METHODS OF THEIR USE” (ICAHN SCHOOL OF MEDICINE AT MOUNT SINAI, priority 2021, published 2024).

What was measured:
ROC1-CUL4A = ROC1-CUL4A (Homo sapiens (Human), UniProt Q13619); assay: 32P-Ub chain elongation by ROC1-CUL4A; assay type: biochemical; set-up: concentration or dose not given beside the values; details: relative to KH-4-43
Protocol: The reaction was incubated for 5 min at 37° C. […] The reaction was incubated for 5 min at room temperature. In the second step (chase), the completed Cdc34b-Ub thiol ester reaction mixture was combined with one third of the completed mono-ubiquitination mixture. The final volume was adjusted to 10 μl with a mix that contained 50 mM Tris-HCl (pH 7.4), 0.5 mM DTT, 0.1 mg/ml of BSA, 5 mM MgCl2, and 2 mM ATP. Compounds were added where indicated. The chase reaction was incubated for 10 min at 37° C. The reaction products were separated by 4-20% SDS-polyacrylamide gel electrophoresis. The reaction scheme was identical to the one described above for FIGS. 12A-B. […] The reaction products, separated by SDS-PAGE, were visualized and analyzed by phospho-imaging using Typhoon 9500 scanner.

HCT116 = assay: Apoptosis, Annexin V flow cytometry; assay type: cell-based; details: Homo sapiens, HCT-116; HCT116, Colon
In short: (§1)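 5×10^4 cells were seeded 24 h before treatment, then cultured with compound for 48 h. Pelleted cells were washed in Annexin V binding buffer (HEPES pH 7.4, with CaCl2) and stained in the dark with Annexin V-FITC (2 μg/ml) for 5 min. Apoptosis was read by flow cytometry.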

MOLT-4 = assay: Apoptosis, Annexin V flow cytometry; assay type: cell-based; details: Homo sapiens; MOLT-4, ALL
In short: as §1

NB-4 = assay: Apoptosis, Annexin V flow cytometry; assay type: cell-based; details: Homo sapiens; NB-4, AML
In short: as §1

Plasma stability = assay type: in vitro ADME; details: Human
Protocol: ADME studies on compounds #33-11 and KH-4-43 for “absorption, distribution, metabolism, and excretion” were carried out at CRO, BioDuro. Kinetic solubility, plasma and microsome stability in rat, mouse and human, as well as Caco-2 Permeability were examined.

E3 (CUL4) = E3 (CUL4) (Homo sapiens (Human), UniProt Q13619); assay: E3 (CUL4) inhibition (Table 1); assay type: biochemical
Chain of E3 (CUL4) (Q13619 whole entry): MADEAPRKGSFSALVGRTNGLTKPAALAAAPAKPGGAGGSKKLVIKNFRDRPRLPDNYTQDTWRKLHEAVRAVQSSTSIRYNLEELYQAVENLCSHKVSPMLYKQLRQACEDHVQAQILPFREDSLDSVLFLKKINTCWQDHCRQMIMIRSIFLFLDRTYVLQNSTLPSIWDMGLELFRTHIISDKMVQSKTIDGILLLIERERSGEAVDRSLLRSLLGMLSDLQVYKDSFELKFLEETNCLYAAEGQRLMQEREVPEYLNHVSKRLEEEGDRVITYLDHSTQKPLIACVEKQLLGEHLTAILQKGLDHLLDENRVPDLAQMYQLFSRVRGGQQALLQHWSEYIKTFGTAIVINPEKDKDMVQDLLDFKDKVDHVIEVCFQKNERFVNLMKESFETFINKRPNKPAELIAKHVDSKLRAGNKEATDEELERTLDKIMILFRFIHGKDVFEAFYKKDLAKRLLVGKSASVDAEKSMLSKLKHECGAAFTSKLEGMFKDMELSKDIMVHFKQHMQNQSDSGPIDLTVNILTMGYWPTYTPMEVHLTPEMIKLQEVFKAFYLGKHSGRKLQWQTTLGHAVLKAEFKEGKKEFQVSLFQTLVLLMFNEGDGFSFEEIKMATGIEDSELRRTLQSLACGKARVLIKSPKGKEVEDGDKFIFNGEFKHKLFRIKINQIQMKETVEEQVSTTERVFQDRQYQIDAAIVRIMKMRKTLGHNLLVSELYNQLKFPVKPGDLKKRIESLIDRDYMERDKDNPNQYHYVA
Chain of E3 (CUL4) (P62877 whole entry partner): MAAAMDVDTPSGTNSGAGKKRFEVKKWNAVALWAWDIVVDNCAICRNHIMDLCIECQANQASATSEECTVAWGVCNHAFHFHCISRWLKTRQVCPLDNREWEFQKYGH
In short: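 Two-step assay: Cdc34b-Ub thiol ester formation, then chase with ROC1-cullin mono-ubiquitination mix for 10 min at 37° C in 50 mM Tris-HCl pH 7.4, 0.5 mM DTT, 0.1 mg/ml BSA, 5 mM MgCl2, 2 mM ATP with compounds. 32P-Ub chain products resolved by SDS-PAGE and quantified by phospho-imaging.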

MV4-11 cells = assay: Cell viability assay (CellTiter-Glo); assay type: cell-based; details: Homo sapiens; MV4-11, 48 hours
Protocol: The ability of #33-11 to induce apoptosis was measured by Annexin V flow cytometry (FIG. 1A). EC50/EC90 for each cell line are indicated. […] Mouse pancreatic cancer cell lines K8484 and DT8082 were isolated from the KPC mice (Olive et al., “Inhibition of Hedgehog Signaling Enhances Delivery of Chemotherapy in a Mouse Model of Pancreatic Cancer,” Science 324(5933):1457-1461 (2009), which is hereby incorporated by reference in its entirety), the rest (34 in total) are all human cancer cell lines. Washout: MV4-11 cells at 10^5 cells/ml were treated with compound at concentrations as indicated (FIG. 1C). At specified hours post compound treatment, the cells were washed once with fresh complete media without compound and allowed to grow for additional 48 hours followed by viability test as in FIG. 1B.
For cell viability assay, 10,000 cells (per well) were seeded in 96 well plates in 100 microliters of media and incubated overnight. Serial dilutions of compounds tested were then added to wells in triplicate. […] The luminescence of each well was then read using a Synergy multi-mode plate reader (BioTek). For determining relative luminescence, the background (average reading of wells containing only media and CellTiter-Glo reagent, no cells) was first subtracted from the reading of each sample. […] Then EC50 was determined using the four parameter logistics regression standard curve.

Chain of ROC1-CUL4A (Q13619 39-759): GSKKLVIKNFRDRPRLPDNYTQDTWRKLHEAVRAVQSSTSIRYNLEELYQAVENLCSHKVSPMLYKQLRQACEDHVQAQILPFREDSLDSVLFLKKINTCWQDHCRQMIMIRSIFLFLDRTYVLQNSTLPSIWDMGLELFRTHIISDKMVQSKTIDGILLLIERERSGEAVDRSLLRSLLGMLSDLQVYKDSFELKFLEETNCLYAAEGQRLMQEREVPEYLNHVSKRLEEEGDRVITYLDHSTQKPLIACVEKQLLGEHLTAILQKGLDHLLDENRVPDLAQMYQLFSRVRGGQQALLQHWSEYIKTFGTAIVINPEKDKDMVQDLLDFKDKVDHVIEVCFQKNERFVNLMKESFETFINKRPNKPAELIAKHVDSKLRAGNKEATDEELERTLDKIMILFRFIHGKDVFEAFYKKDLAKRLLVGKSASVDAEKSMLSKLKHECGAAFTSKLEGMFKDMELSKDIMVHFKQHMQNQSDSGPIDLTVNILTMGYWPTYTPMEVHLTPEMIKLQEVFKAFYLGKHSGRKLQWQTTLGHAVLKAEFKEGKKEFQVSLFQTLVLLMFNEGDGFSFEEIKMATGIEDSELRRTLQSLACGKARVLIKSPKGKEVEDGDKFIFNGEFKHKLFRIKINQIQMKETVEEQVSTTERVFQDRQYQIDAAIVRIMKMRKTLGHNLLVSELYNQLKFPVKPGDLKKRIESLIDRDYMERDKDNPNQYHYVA
Chain of ROC1-CUL4A (P62877 15-108 partner): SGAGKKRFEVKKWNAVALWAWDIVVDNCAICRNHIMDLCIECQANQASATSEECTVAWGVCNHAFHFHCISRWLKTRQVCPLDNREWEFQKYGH

Row | Compound | E3 CRL4 Relative Inhibition (ROC1-CUL4A) | EC50 (HCT116) | EC50 (MOLT-4) | EC50 (NB-4) | Plasma Stability: t1/2 (Plasma stability) | EC50 (E3 (CUL4)) | EC50 (MV4-11 cells)
1 | O=c1c(-c2cnn(-c3ccccc3)c2)c(C(F)(F)F)oc2c(O)c(O)ccc12 [#33-11, 7,8-dihydroxy-3-(1-phenyl-1H-pyrazol-4-yl)-2-(trifluoromethyl)-4H-chromen-4-one] | 37% | ~58 µM | ~5 µM | ~7 µM | >8.33 h | – | –
2 | O=c1c(-c2cnn(-c3ccc(Cl)cc3)c2)c(C(F)(F)F)oc2c(O)c(O)ccc12 [KH-4-43, 3-(1-(4-chlorophenyl)-1H-pyrazol-4-yl)-7,8-dihydroxy-2-(trifluoromethyl)-4H-chromen-4-one] | – | – | – | – | – | 10 µM | 3 µM
